Source: ChEMBL document CHEMBL3608278 (J Med Chem, 2015)

Experiments:
[1] = target: T1, Potassium voltage-gated channel subfamily A member 3 (Homo sapiens, UniProt P22001); format: cell-based, CHO-K1
[2] = target: T1, Potassium voltage-gated channel subfamily A member 3; test: cell-based; set-up: species or system Blood
[3] = target: T1, Potassium voltage-gated channel subfamily A member 3; set-up: species or system Blood

T1 sequence (P22001 whole entry): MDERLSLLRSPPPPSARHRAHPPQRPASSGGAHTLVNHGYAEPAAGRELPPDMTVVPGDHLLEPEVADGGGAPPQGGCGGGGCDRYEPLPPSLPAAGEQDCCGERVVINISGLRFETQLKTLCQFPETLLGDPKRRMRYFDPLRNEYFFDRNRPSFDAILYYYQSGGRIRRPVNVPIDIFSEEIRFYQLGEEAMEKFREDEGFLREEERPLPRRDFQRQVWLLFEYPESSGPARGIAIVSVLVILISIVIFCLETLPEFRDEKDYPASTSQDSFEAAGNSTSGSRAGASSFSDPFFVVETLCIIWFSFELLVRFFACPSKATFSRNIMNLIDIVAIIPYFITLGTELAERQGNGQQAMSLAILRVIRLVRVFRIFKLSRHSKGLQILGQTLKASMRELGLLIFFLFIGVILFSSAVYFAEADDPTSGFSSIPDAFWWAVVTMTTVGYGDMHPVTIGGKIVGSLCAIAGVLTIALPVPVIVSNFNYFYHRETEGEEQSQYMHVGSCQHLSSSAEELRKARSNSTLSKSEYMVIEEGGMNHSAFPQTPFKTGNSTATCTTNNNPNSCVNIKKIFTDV

SMILES | IC50 [1] | IC50 [2] | IC50 [3]
CC[C@H](C)[C@@H]1NC(=O)[C@@H](NC(=O)[C@H](CO)NC(=O)[C@@H](N)CCCNC(=N)N)CSSC[C@@H](C(=O)O)NC(=O)[C@H]([C@@H](C)O)NC(=O)CNC(=O)[C@@H]2CSSC[C@@H]3NC(=O)[C@H](CCC(N)=O)NC(=O)[C@H](Cc4ccccc4)NC(=O)[C@H](C)NC(=O)[C@H]([C@@H](C)O)NC(=O)[C@H](CSSC[C@H](NC(=O)[C@H](Cc4ccccc4)NC(=O)[C@H](CO)NC(=O)[C@H](CC(C)C)NC(=O)[C@H](CCCNC(=N)N)NC(=O)[C@H](Cc4ccc(O)cc4)NC(=O)[C@H](CCCCN)NC(=O)[C@H](CCSC)NC(=O)[C@H](CO)NC(=O)[C@H](Cc4cnc[nH]4)NC(=O)[C@H](CCCCN)NC3=O)C(=O)N[C@@H](CCCNC(=N)N)C(=O)N[C@@H](CCCCN)C(=O)N[C@@H]([C@@H](C)O)C(=O)N2)NC(=O)[C@H](CCCNC(=N)N)NC(=O)[C@H](CO)NC(=O)[C@H](CCCCN)NC(=O)[C@@H]2CCCN2C(=O)[C@H](C)NC(=O)[C@H]([C@@H](C)O)NC(=O)[C@H](CC(=O)O)NC1=O | 0.201 nM | 0.748 nM | 1.98 nM
CC[C@H](C)[C@@H]1NC(=O)[C@@H](NC(=O)[C@H](CO)NC(=O)[C@@H](N)CCCNC(=N)N)CSSC[C@@H](C(=O)O)NC(=O)[C@H]([C@@H](C)O)NC(=O)CNC(=O)[C@@H]2CSSC[C@@H]3NC(=O)[C@H](CCC(N)=O)NC(=O)[C@H](Cc4ccccc4)NC(=O)[C@H](C)NC(=O)[C@H]([C@@H](C)O)NC(=O)[C@H](CSSC[C@H](NC(=O)[C@H](Cc4ccccc4)NC(=O)[C@H](CO)NC(=O)[C@H](CC(C)C)NC(=O)[C@H](CCCNC(=N)N)NC(=O)[C@H](Cc4ccc(O)cc4)NC(=O)[C@H](CCCCN)NC(=O)[C@H](CCSC)NC(=O)[C@H](CO)NC(=O)[C@H](Cc4cnc[nH]4)NC(=O)[C@H](CCCCN)NC3=O)C(=O)N[C@@H](CCCNC(=N)N)C(=O)N[C@@H](CCCCN)C(=O)N[C@@H]([C@@H](C)O)C(=O)N2)NC(=O)[C@H](CCCNC(=N)N)NC(=O)[C@H](CO)NC(=O)[C@H](CCCCN)NC(=O)[C@H](C)NC(=O)[C@H]([C@@H](C)CC)NC(=O)[C@H]([C@@H](C)O)NC(=O)[C@H](CC(=O)O)NC1=O | 0.079 nM | 0.034 nM | 0.066 nM
CC[C@H](C)[C@@H]1NC(=O)[C@@H](NC(=O)[C@H](CO)NC(=O)[C@@H](N)CCCNC(=N)N)CSSC[C@@H](C(=O)O)NC(=O)[C@H]([C@@H](C)O)NC(=O)CNC(=O)[C@@H]2CSSC[C@@H]3NC(=O)[C@H](CCC(N)=O)NC(=O)[C@H](Cc4ccccc4)NC(=O)[C@H](C)NC(=O)[C@H]([C@@H](C)O)NC(=O)[C@H](CSSC[C@H](NC(=O)[C@H](Cc4ccccc4)NC(=O)[C@H](CO)NC(=O)[C@H](CC(C)C)NC(=O)[C@H](CCCNC(=N)N)NC(=O)[C@H](Cc4ccc(O)cc4)NC(=O)[C@H](CCCCN)NC(=O)[C@H](CCSC)NC(=O)[C@H](CO)NC(=O)[C@H](Cc4cnc[nH]4)NC(=O)[C@H](CCCCN)NC3=O)C(=O)N[C@@H](CCCNC(=N)N)C(=O)N[C@@H](CCCCN)C(=O)N[C@@H]([C@@H](C)O)C(=O)N2)NC(=O)[C@H](CCCNC(=N)N)NC(=O)[C@H](CO)NC(=O)[C@H](C)NC(=O)[C@@H]2CCCN2C(=O)[C@H]([C@@H](C)CC)NC(=O)[C@H]([C@@H](C)O)NC(=O)[C@H](CC(=O)O)NC1=O | 0.119 nM | 0.045 nM | 0.081 nM
CC[C@H](C)[C@@H]1NC(=O)[C@@H](NC(=O)[C@H](CO)NC(=O)[C@@H](N)CCCNC(=N)N)CSSC[C@@H](C(=O)O)NC(=O)[C@H]([C@@H](C)O)NC(=O)CNC(=O)[C@@H]2CSSC[C@@H]3NC(=O)[C@H](CCC(N)=O)NC(=O)[C@H](Cc4ccccc4)NC(=O)[C@H](C)NC(=O)[C@H]([C@@H](C)O)NC(=O)[C@H](CSSC[C@H](NC(=O)[C@H](Cc4ccccc4)NC(=O)[C@H](CO)NC(=O)[C@H](CC(C)C)NC(=O)[C@H](CCCNC(=N)N)NC(=O)[C@H](Cc4ccc(O)cc4)NC(=O)[C@H](CCCCN)NC(=O)[C@H](CCCCN)NC(=O)[C@H](CO)NC(=O)[C@H](Cc4cnc[nH]4)NC(=O)[C@H](CCCCN)NC3=O)C(=O)N[C@@H](CCCNC(=N)N)C(=O)N[C@@H](CCCCN)C(=O)N[C@@H]([C@@H](C)O)C(=O)N2)NC(=O)[C@H](CCCNC(=N)N)NC(=O)[C@H](CO)NC(=O)[C@H](CCCCN)NC(=O)[C@@H]2CCCN2C(=O)[C@H]([C@@H](C)CC)NC(=O)[C@H]([C@@H](C)O)NC(=O)[C@H](CC(=O)O)NC1=O | 0.798 nM | 3.59 nM | 4.82 nM
CC[C@H](C)[C@@H]1NC(=O)[C@@H](NC(=O)[C@H](CO)NC(=O)[C@@H](N)CCCNC(=N)N)CSSC[C@@H](C(=O)O)NC(=O)[C@H](CCCCN)NC(=O)CNC(=O)[C@@H]2CSSC[C@@H]3NC(=O)[C@H](CCC(N)=O)NC(=O)[C@H](Cc4ccccc4)NC(=O)[C@H](C)NC(=O)[C@H]([C@@H](C)O)NC(=O)[C@H](CSSC[C@H](NC(=O)[C@H](Cc4ccccc4)NC(=O)[C@H](CO)NC(=O)[C@H](CC(C)C)NC(=O)[C@H](CCCNC(=N)N)NC(=O)[C@H](Cc4ccc(O)cc4)NC(=O)[C@H](CCCCN)NC(=O)[C@H](CCSC)NC(=O)[C@H](CO)NC(=O)[C@H](Cc4cnc[nH]4)NC(=O)[C@H](CCCCN)NC3=O)C(=O)N[C@@H](CCCNC(=N)N)C(=O)N[C@@H](CCCCN)C(=O)N[C@@H]([C@@H](C)O)C(=O)N2)NC(=O)[C@H](CCCNC(=N)N)NC(=O)[C@H](CO)NC(=O)[C@H](CCCCN)NC(=O)[C@@H]2CCCN2C(=O)[C@H]([C@@H](C)CC)NC(=O)[C@H]([C@@H](C)O)NC(=O)[C@H](CC(=O)O)NC1=O | 0.153 nM | 0.067 nM | 0.136 nM

The remaining lines, values ahead:

IC50 [1] | IC50 [2] | IC50 [3] | SMILES
0.193 nM | 0.108 nM | 0.193 nM | CC[C@H](C)[C@@H]1NC(=O)[C@@H](NC(=O)[C@H](CO)NC(=O)[C@@H](N)CCCNC(=N)N)CSSC[C@@H](C(=O)O)NC(=O)[C@H]([C@@H](C)O)NC(=O)CNC(=O)[C@@H]2CSSC[C@@H]3NC(=O)[C@H](CCC(N)=O)NC(=O)[C@H](Cc4ccccc4)NC(=O)[C@H](C)NC(=O)[C@H]([C@@H](C)O)NC(=O)[C@H](CSSC[C@H](NC(=O)[C@H](Cc4ccccc4)NC(=O)[C@H](CO)NC(=O)[C@H](CC(C)C)NC(=O)[C@H](CCCNC(=N)N)NC(=O)[C@H](Cc4ccc(O)cc4)NC(=O)[C@H](CCCCN)NC(=O)[C@H](CCSC)NC(=O)[C@H](CCCCN)NC(=O)[C@H](Cc4cnc[nH]4)NC(=O)[C@H](CCCCN)NC3=O)C(=O)N[C@@H](CCCNC(=N)N)C(=O)N[C@@H](CCCCN)C(=O)N[C@@H]([C@@H](C)O)C(=O)N2)NC(=O)[C@H](CCCNC(=N)N)NC(=O)[C@H](CO)NC(=O)[C@H](CCCCN)NC(=O)[C@@H]2CCCN2C(=O)[C@H]([C@@H](C)CC)NC(=O)[C@H]([C@@H](C)O)NC(=O)[C@H](CC(=O)O)NC1=O
0.122 nM | 0.273 nM | 0.496 nM | CC[C@H](C)[C@@H]1NC(=O)[C@@H](NC(=O)[C@H](CO)NC(=O)[C@@H](N)CCCNC(=N)N)CSSC[C@@H](C(=O)O)NC(=O)[C@H]([C@@H](C)O)NC(=O)CNC(=O)[C@@H]2CSSC[C@@H]3NC(=O)[C@H](CCC(N)=O)NC(=O)[C@H](Cc4ccccc4)NC(=O)[C@H](C)NC(=O)[C@H]([C@@H](C)O)NC(=O)[C@H](CSSC[C@H](NC(=O)[C@H](Cc4ccccc4)NC(=O)[C@H](CCCCN)NC(=O)[C@H](CC(C)C)NC(=O)[C@H](CCCNC(=N)N)NC(=O)[C@H](Cc4ccc(O)cc4)NC(=O)[C@H](CCCCN)NC(=O)[C@H](CCSC)NC(=O)[C@H](CO)NC(=O)[C@H](Cc4cnc[nH]4)NC(=O)[C@H](CCCCN)NC3=O)C(=O)N[C@@H](CCCNC(=N)N)C(=O)N[C@@H](CCCCN)C(=O)N[C@@H]([C@@H](C)O)C(=O)N2)NC(=O)[C@H](CCCNC(=N)N)NC(=O)[C@H](CO)NC(=O)[C@H](CCCCN)NC(=O)[C@@H]2CCCN2C(=O)[C@H]([C@@H](C)CC)NC(=O)[C@H]([C@@H](C)O)NC(=O)[C@H](CC(=O)O)NC1=O
0.985 nM | 3.49 nM | 11.8 nM | CC[C@H](C)[C@@H]1NC(=O)[C@@H](NC(=O)[C@H](CO)NC(=O)[C@@H](N)CCCNC(=N)N)CSSC[C@@H](C(=O)O)NC(=O)[C@H]([C@@H](C)O)NC(=O)CNC(=O)[C@@H]2CSSC[C@@H]3NC(=O)[C@H](CCC(N)=O)NC(=O)[C@H](Cc4ccccc4)NC(=O)[C@H](C)NC(=O)[C@H]([C@@H](C)O)NC(=O)[C@H](CSSC[C@H](NC(=O)[C@H](CCCCN)NC(=O)[C@H](CO)NC(=O)[C@H](CC(C)C)NC(=O)[C@H](CCCNC(=N)N)NC(=O)[C@H](Cc4ccc(O)cc4)NC(=O)[C@H](CCCCN)NC(=O)[C@H](CCSC)NC(=O)[C@H](CO)NC(=O)[C@H](Cc4cnc[nH]4)NC(=O)[C@H](CCCCN)NC3=O)C(=O)N[C@@H](CCCNC(=N)N)C(=O)N[C@@H](CCCCN)C(=O)N[C@@H]([C@@H](C)O)C(=O)N2)NC(=O)[C@H](CCCNC(=N)N)NC(=O)[C@H](CO)NC(=O)[C@H](CCCCN)NC(=O)[C@@H]2CCCN2C(=O)[C@H]([C@@H](C)CC)NC(=O)[C@H]([C@@H](C)O)NC(=O)[C@H](CC(=O)O)NC1=O
0.293 nM | 0.041 nM | 0.071 nM | CC[C@H](C)[C@@H]1NC(=O)[C@@H](NC(=O)[C@H](CO)NC(=O)[C@@H](N)CCCNC(=N)N)CSSC[C@@H](C(=O)O)NC(=O)[C@H]([C@@H](C)O)NC(=O)CNC(=O)[C@@H]2CSSC[C@@H]3NC(=O)[C@H](CCC(N)=O)NC(=O)[C@H](Cc4ccccc4)NC(=O)[C@H](C)NC(=O)[C@H]([C@@H](C)O)NC(=O)[C@H](CSSC[C@H](NC(=O)[C@H](Cc4ccccc4)NC(=O)[C@H](CO)NC(=O)[C@H](CC(C)C)NC(=O)[C@H](CCCNC(=N)N)NC(=O)[C@H](Cc4ccc(O)cc4)NC(=O)[C@H](CCCCN)NC(=O)[C@H](CCSC)NC(=O)[C@H](CO)NC(=O)[C@H](Cc4cnc[nH]4)NC(=O)[C@H](CCCCN)NC3=O)C(=O)N[C@@H](CCCCN)C(=O)N[C@@H](CCCCN)C(=O)N[C@@H]([C@@H](C)O)C(=O)N2)NC(=O)[C@H](CCCNC(=N)N)NC(=O)[C@H](CO)NC(=O)[C@H](CCCCN)NC(=O)[C@@H]2CCCN2C(=O)[C@H]([C@@H](C)CC)NC(=O)[C@H]([C@@H](C)O)NC(=O)[C@H](CC(=O)O)NC1=O
